Results published in US12428415B2, “Matriptase 2 inhibitors and uses thereof” (Disc Medicine, Inc., priority 2018, dated 2025).

These compounds were tested against T1, Human Recombinant Matriptase 2 (Homo sapiens, UniProt Q8IU80) (assay: Matriptase 2 fluorescence based inhibition assay, Method B (50 mM TRIS pH 7.5, 150 mM NaCl, 0.01% gelatin)). Settings: 1 uM compound; Assay Used = B.
T1 construct: purchased Enzo Life Sciences (an in-house preparation was also used) ALX-201-752-1
T1 sequence (Q8IU80 1-811): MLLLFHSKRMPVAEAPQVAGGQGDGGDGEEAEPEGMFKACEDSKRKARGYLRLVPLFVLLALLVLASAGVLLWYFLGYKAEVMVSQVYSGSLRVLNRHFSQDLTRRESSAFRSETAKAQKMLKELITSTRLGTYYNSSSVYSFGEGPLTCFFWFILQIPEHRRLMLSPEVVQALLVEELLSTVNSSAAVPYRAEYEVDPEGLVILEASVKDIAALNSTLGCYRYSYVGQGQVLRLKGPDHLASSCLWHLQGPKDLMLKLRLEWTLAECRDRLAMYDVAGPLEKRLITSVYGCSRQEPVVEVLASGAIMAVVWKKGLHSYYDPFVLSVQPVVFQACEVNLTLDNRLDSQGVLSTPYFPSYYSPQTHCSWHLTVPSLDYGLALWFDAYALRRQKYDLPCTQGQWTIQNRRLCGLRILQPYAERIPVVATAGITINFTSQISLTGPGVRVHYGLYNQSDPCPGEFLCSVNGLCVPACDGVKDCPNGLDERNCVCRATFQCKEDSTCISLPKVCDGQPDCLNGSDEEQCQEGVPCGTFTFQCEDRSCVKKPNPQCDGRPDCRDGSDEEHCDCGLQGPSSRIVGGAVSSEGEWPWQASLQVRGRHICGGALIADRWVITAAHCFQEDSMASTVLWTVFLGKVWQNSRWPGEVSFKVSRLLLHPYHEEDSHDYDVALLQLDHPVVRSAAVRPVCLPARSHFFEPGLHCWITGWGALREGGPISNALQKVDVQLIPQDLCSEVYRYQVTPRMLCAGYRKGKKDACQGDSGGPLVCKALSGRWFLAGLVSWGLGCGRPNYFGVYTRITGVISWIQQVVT
Assay type: biochemical
Experimental: Test compounds were evaluated for their potential to inhibit Human Recombinant Matriptase 2 (in-house and commercial protein from Enzo Life Sciences—cat log -ALX-201-752-1) using fluorescence based assay. The concentration of Recombinant Matriptase 2 and the substrate used in the assay was: 7 nM (commercial) and 15 nM (Inhouse Matriptase 2) and 100 μM (Boc-Gln-Ala-Arg-7-amido-4-methyl coumarin hydrobromide—Cat log: B4153-Sigma and I-1550 from Bachem) respectively. The assay buffer used was 50 mM TRIS pH 7.5, 150 mM NaCl, 0.01% gelatin (G1393 Sigma). The assay was performed using 384 well black flat bottom plate from grenier (Cat log: 781076) at 25° C. The enzyme and compound preincubated for 30 mins, plate was read 60 mins after substrate addition at wavelength Ex: 360/Em:480 nm. The final assay volume of was 20 μl. Stock solution of compounds were initially prepared in DMSO and appropriate dilutions were made for screening and IC50 determination (final DMSO conc in the assay was 1%). All the measurements were carried out using the Spectramax M5, Molecular devices. The compounds were screened at 1 and 10 μM concentration and IC50 was determined for the interested compounds.
To determine IC50 values, dose response curves were generated by plotting percentage inhibition as a function of inhibitor concentration and the data was fitted to sigmoidal non-linear regression equation (variable slope) using Graph Pad prism software V7.
`N=C(N)c1ccc2cc(C(=O)O)n(-c3ccc4ccccc4c3)c2c1` [Compound I-488, 6-carbamimidoyl-1-(naphthalen-2-yl)-1H-indole-2-carboxylic Acid] was tested, and the “Mar-2 % inhibition at 1 uM” value was “A (A represents 0%≤I≤25%)”. With `CC1CCCCN1CCCNC(=O)c1cc2ccc(C(=N)N)cc2n1Cc1cccc2ccccc12` (stereo not drawn) [Compound I-479] the “Mar-2 % inhibition at 1 uM” value was “C (C represents 50%≤I≤75%)”.

Same assay, conditions: 1 uM compound; Assay Used = B (Method B)
For `N=C(N)c1ccc2c(CO)c(C(=O)N[C@H]3CC[C@H](N)CC3)n(Cc3cccc4ccccc34)c2c1` [Compound I-619], the “Mar-2 % inhibition at 1 uM” value was “A (A represents 0%≤I≤25%)”.

Same assay, conditions: 1 uM compound; Assay Used = B (Method B); read-out: Mar-2 % inhibition at 1 uM
`NC(=NO)c1ccc2cc(C(=O)O)n(Cc3cccc4ccccc34)c2n1` [Compound I-650] was tested, and the inhibition at 1 µM was 0 to 25%. `CCOC(=O)c1cc2ccc(C(=N)NC(=O)OCC(C)C)nc2n1Cc1cccc2ccccc12` [Compound I-676] gave an inhibition at 1 µM of 0 to 25%. `N=C(N)c1ccc2cc(C(=O)O)n(Cc3cccc4c(Oc5ccccc5)cccc34)c2c1` [Compound I-730] gave an inhibition at 1 µM of 50 to 75%. In the case of `N=C(N)c1ccc2cc(C(=O)O)n(Cc3cc(Oc4cnccn4)cc4ccccc34)c2c1` [Compound I-625], the inhibition at 1 µM is reported as 50 to 75%. `N=C(N)c1ccc2cc(C(=O)NCCO)n(Cc3cccc4ccccc34)c2c1` [Compound I-600] showed an inhibition at 1 µM of 75 to 100%. `NCc1ccc2cc(C(=O)N[C@H]3CC[C@H](N)CC3)n(Cc3cc(Oc4ccccc4)cc4ccccc34)c2c1` [Compound I-635] showed an inhibition at 1 µM of 50 to 75%. With `N=C(N)c1ccc2cc(C(=O)N[C@H]3CC[C@H](NC(=O)NC(N)=O)CC3)n(Cc3cccc4ccccc34)c2c1` [Compound I-734] the inhibition at 1 µM was 50 to 75%. Compound `N=C(N)c1ccc2cc(C(=O)N[C@H]3CC[C@H](N)CC3)n(Cc3cc(Oc4ccccn4)cc4ccccc34)c2c1` [Compound I-599] has an inhibition at 1 µM of 75 to 100%. In the case of `N=C(N)c1ccc2cc(C(=O)O)n(Cc3ccc(Oc4ccccc4)c4ccccc34)c2c1` [Compound I-705], the inhibition at 1 µM is reported as 50 to 75%. `COc1ccccc1Oc1cc(Cn2c(C(=O)O)cc3ccc(C(=N)N)cc32)c2ccccc2c1` [Compound I-709] was tested, and the inhibition at 1 µM was 25 to 50%. `COc1ccc2cccc(Cn3c(C(=O)N[C@H]4CC[C@H](N)CC4)cc4ccc(C(=N)N)cc43)c2c1` [Compound I-775] was tested, and the inhibition at 1 µM was 75 to 100%. In the case of `Cc1ccc(S(=O)(=O)Oc2cc(Cn3c(C(=O)N[C@H]4CC[C@H](N)CC4)cc4ccc(C(=N)N)cc43)c3ccccc3c2)cc1` [Compound I-614], the inhibition at 1 µM is reported as 75 to 100%. `CC1CCCCN1CCCNC(=O)c1cc2ccc(C(=N)N)cc2n1Cc1cccc2ccccc12` (stereo not drawn) [Compound I-683] showed an inhibition at 1 µM of 50 to 75%. Work on `NCc1ccc2cc(C(=O)N[C@H]3CC[C@@H](N)CC3)n(Cc3cccc4ccccc34)c2c1` [Compound I-743] yielded an inhibition at 1 µM of 50 to 75%. `CO/N=C(\N)c1ccc2cc(C(=O)OC)n(Cc3cccc4ccccc34)c2n1` [Compound I-697, Methyl (Z)-6-(N′-methoxycarbamimidoyl)-1-(naphthalen-1-ylmethyl)-1H-pyrrolo[2,3-b]pyridine-2-carboxylate] was tested, and the inhibition at 1 µM was 0 to 25%. `N=C(N)c1ccc2cc(C(=O)N[C@H]3CC[C@H](N)CC3)n(Cc3csc4ccccc34)c2c1` [Compound I-756] was tested, and the inhibition at 1 µM was 75 to 100%. Compound `N=C(N)c1ccc2cc(C(=O)OCCNC(N)=O)n(Cc3cccc4ccccc34)c2c1` [Compound I-597] has an inhibition at 1 µM of 75 to 100%. `CC(C)COC(=O)c1cc(Cn2c(C(=O)N[C@H]3CC[C@H](N)CC3)cc3ccc(C(=N)N)cc32)c2ccccc2c1` [Compound I-780] was tested, and the inhibition at 1 µM was 75 to 100%. `N=C(N)c1ccc2cc(C(=O)NC3CCC(N)CC3)n(Cc3ccc(CN)c4ccccc34)c2c1` (stereo not drawn) [Compound I-666] was tested, and the inhibition at 1 µM was 50 to 75%.

Same assay, conditions: 1 uM compound; Assay Used = B; read-out: Mar-2 % inhibition at 1 uM
For `N=C(N)c1ccc2cc(C(=O)O)n(Cc3cc(OCc4ncccn4)cc4ccccc34)c2c1` [Compound I-563], the inhibition at 1 µM was 50 to 75%. `COC(=O)NCCOC(=O)c1cc2ccc(C(=N)NC(=O)OCC(C)C)cc2n1Cc1cc(Oc2ncccn2)cc2ccccc12` [Compound I-550] showed an inhibition at 1 µM of 0 to 25%. In the case of `N=C(N)c1ccc2cc(C(=O)N3CC[C@@H](N)C3)n(Cc3cccc4ccccc34)c2c1` [Compound I-446], the inhibition at 1 µM is reported as 50 to 75%. In the case of `Cc1c(C(=O)N[C@H]2CC[C@H](N)CC2)n(Cc2cc(Oc3ncccn3)cc3ccccc23)c2cc(C(=N)N)ccc12` [Compound I-591], the inhibition at 1 µM is reported as 75 to 100%. `CCOC(=O)NC(=N)c1ccc2cc(C(=O)NC3CCN(C)CC3)n(Cc3cc(Oc4ncccn4)cc4ccccc34)c2c1` [Compound I-549] gave an inhibition at 1 µM of 25 to 50%. With `CCOC(=O)c1cc2ccc(C(=N)NC(=O)OCC(C)C)cc2n1Cc1cc(Oc2ccsc2)cc2ccccc12` [Compound I-586] the inhibition at 1 µM was 25 to 50%. Compound `N=C(N)c1ccc2cc(C(=O)N[C@H]3CC[C@H](N)CC3)n(C(C(=O)O)c3cccc4ccccc34)c2c1` (stereo partly drawn) [Compound I-502] has an inhibition at 1 µM of 0 to 25%. For `N=C(N)c1ccc2cc(C(=O)NCC3CCNCC3)[nH]c2c1` [Compound I-496, 6-carbamimidoyl-N-(piperidin-4-ylmethyl)-1H-indole-2-carboxamide], the inhibition at 1 µM was 0 to 25%. `CCOC(=O)N1CCC(NC(=O)c2cc3ccc(C(=N)N)cc3n2Cc2cccc3ccccc23)CC1` [Compound I-434] gave an inhibition at 1 µM of 75 to 100%. Work on `CN1CCC(NC(=O)c2cc3ccc(CN)cc3n2Cc2cccc3ccccc23)CC1` [Compound I-535] yielded an inhibition at 1 µM of 25 to 50%. `CC(C)(C)OC(=O)N[C@H]1CC[C@H](NC(=O)c2cn(Cc3cccc4ccccc34)c3cc(C(=N)N)ccc23)CC1` [Compound I-518, tert-butyl ((1r,4r)-4-(6-carbamimidoyl-1-(naphthalen-1-ylmethyl)-1H-indole-3-carboxamido)cyclohexyl) carbamate] showed an inhibition at 1 µM of 0 to 25%. Work on `CN(C)[C@H]1CC[C@@H](NC(=O)c2cc3ccc(C(=N)N)cc3n2Cc2cccc3ccccc23)CC1` [Compound I-470] yielded an inhibition at 1 µM of 75 to 100%. In the case of `N=C(N)c1ccc2cc(C(=O)OCc3ccccc3)n(Cc3cc(Oc4ncccn4)cc4ccccc34)c2c1` [Compound I-596], the inhibition at 1 µM is reported as 25 to 50%. Work on `N=C(N)c1ccc2cc(C(=O)NC3CCOCC3)n(Cc3cccc4ccccc34)c2c1` [Compound I-463] yielded an inhibition at 1 µM of 50 to 75%. `NC(=O)c1ccc2cc(-c3nnc([C@H]4CC[C@H](N)CC4)s3)n(Cc3cccc4ccccc34)c2c1` [Compound I-527, 2-(5-((1r,4r)-4-aminocyclohexyl)-1,3,4-thiadiazol-2-yl)-1-(naphthalen-1-ylmethyl)-1H-indole-6-carboxamide] was tested, and the inhibition at 1 µM was 0 to 25%. `CC(C)(C)OC(=O)N[C@H]1CC[C@H](NC(=O)c2cc3ccc(CN)cc3n2Cc2cccc3ccccc23)CC1` [Compound I-530, tert-butyl ((1r,4r)-4-(6-(aminomethyl)-1-(naphthalen-1-ylmethyl)-1H-indole-2-carboxamido)cyclohexyl) carbamate] showed an inhibition at 1 µM of 0 to 25%. `N=C(N)c1ccc2cc(C(=O)NC3CCNC(=O)C3)n(Cc3cccc4ccccc34)c2c1` (stereo not drawn) [Compound I-477] gave an inhibition at 1 µM of 50 to 75%.

Same assay, conditions: compound at 1 uM; Assay Used: B; read-out: Mar-2 % inhibition at 1 uM
`N=C(N)c1ccc2cc(C(=O)N[C@H]3CC[C@H](N)CC3)n(Cc3cc(CO)cc4ccccc34)c2c1` [Compound I-800, N-((1r,4r)-4-aminocyclohexyl)-6-carbamimidoyl-1-((3-(hydroxymethyl)naphthalen-1-yl)methyl)-1H-indole-2-carboxamide] showed an inhibition at 1 µM of 25 to 50%.

Same assay, conditions: read-out: Mar-2 % inhibition at 1 uM
`N=C(NC(=O)Oc1ccccc1)c1ccc2cc(C(=O)OCc3ccccc3)n(Cc3cc(Oc4ncccn4)cc4ccccc34)c2c1` [Compound I-576] was tested, and the inhibition at 1 µM was 0 to 25%. `COC(=O)c1cc2ccc(C(=N)NC(=O)Oc3ccccc3)cc2n1Cc1cccc2ccccc12` [Compound I-738] was tested, and the inhibition at 1 µM was 0 to 25%.
